Organism: Rattus norvegicus
Assay: Open TG-GATES - Regimen: Single
Assay type: toxicity, organism-based, Sprague-Dawley
Set-up: regimen Single, gender Male, age 6 weeks
Conditions: in vivo, po, 0 mg/kg, route gavage, dose level Control; for APTT / Bas / Eos / Fbg / Hb / Ht / Lym / MCH / MCHC / MCV / Mono / Neu / PT / Plat / RBC / Ret / WBC: tissue Blood; for KIDNEY_L / KIDNEY_R / KIDNEY_TOTAL: tissue Kidney; for LIVER: tissue Liver; for A/G / ALP / ALT / AST / BUN / CRE / Ca / Cl / DBIL / GLC / IP / K / LDH / Na / PL / RALB / TBIL / TC / TG / TP / gamma-GTP: tissue Plasma

Structure (SMILES): CC(=O)Nc1ccc2c(c1)Cc1ccccc1-2 [2-ACETYLAMINOFLUORENE]
- TERMINAL_BW (3 h): 224.8 g
- APTT (3 h): 20.9 s
- Bas (3 h): 0%
- Eos (3 h): 1%
- Fbg (3 h): 222.8 mg/dL
- Hb (3 h): 13.6 g/dL
- Ht (3 h): 39.5%
- Lym (3 h): 76.8%
- MCH (3 h): 21.5 pg
- MCHC (3 h): 34.5%
- MCV (3 h): 62.4 fL
- Mono (3 h): 2.4%
- Neu (3 h): 18.4%
- PT (3 h): 11.9 s
- Plat (3 h): 128.1 x10_4/uL
- RBC (3 h): 632.6 x10_4/ul
- Ret (3 h): 7.4%
- WBC (3 h): 87.7 x10_2/uL
- KIDNEY_L (3 h): 1 g
- KIDNEY_R (3 h): 1 g
- KIDNEY_TOTAL (3 h): 2 g
- LIVER (3 h): 10.3 g
- A/G (3 h): 1.7
- ALP (3 h): 1018.4 IU/L
- ALT (3 h): 36.6 IU/L
- AST (3 h): 77.4 IU/L
- BUN (3 h): 10.8 mg/dL
- CRE (3 h): 0.4 mg/dL
- Ca (3 h): 10.5 mg/dL
- Cl (3 h): 103.2 meq/L
- DBIL (3 h): 0.072 mg/dL
- GLC (3 h): 194.8 mg/dL
- IP (3 h): 9.7 mg/dL
- K (3 h): 4 meq/L
- LDH (3 h): 161.8 IU/L
- Na (3 h): 141 meq/L
- PL (3 h): 141.6 mg/dL
- RALB (3 h): 3.4 g/dL
- TBIL (3 h): 0.1 mg/dL
- TC (3 h): 77.8 mg/dL
- TG (3 h): 61.6 mg/dL
- TP (3 h): 5.5 g/dL
- gamma-GTP (3 h): 0.8 IU/L
- TERMINAL_BW (6 h): 219.6 g
- APTT (6 h): 20.9 s
- Bas (6 h): 0.6%
- Eos (6 h): 0.6%
- Fbg (6 h): 225.4 mg/dL
- Hb (6 h): 14.2 g/dL
- Ht (6 h): 40.9%
- Lym (6 h): 78.2%
- MCH (6 h): 21.8 pg
- MCHC (6 h): 34.6%
- MCV (6 h): 63.1 fL
- Mono (6 h): 2.8%
- Neu (6 h): 16.8%
- PT (6 h): 12.2 s
- Plat (6 h): 131.8 x10_4/uL
- RBC (6 h): 649.8 x10_4/ul
- Ret (6 h): 6.9%
- WBC (6 h): 108.9 x10_2/uL
- KIDNEY_L (6 h): 1 g
- KIDNEY_R (6 h): 1 g
- KIDNEY_TOTAL (6 h): 2 g
- LIVER (6 h): 9.3 g
- A/G (6 h): 1.7
- ALP (6 h): 956.2 IU/L
- ALT (6 h): 32.4 IU/L
- AST (6 h): 70.4 IU/L
- BUN (6 h): 9.6 mg/dL
- CRE (6 h): 0.4 mg/dL
- Ca (6 h): 10.5 mg/dL
- Cl (6 h): 101.4 meq/L
- DBIL (6 h): 0.076 mg/dL
- GLC (6 h): 196 mg/dL
- IP (6 h): 9.7 mg/dL
- K (6 h): 4.2 meq/L
- LDH (6 h): 166.6 IU/L
- Na (6 h): 140.4 meq/L
- PL (6 h): 139 mg/dL
- RALB (6 h): 3.4 g/dL
- TBIL (6 h): 0.1 mg/dL
- TC (6 h): 72.2 mg/dL
- TG (6 h): 89.8 mg/dL
- TP (6 h): 5.4 g/dL
- gamma-GTP (6 h): 1.2 IU/L
- TERMINAL_BW (9 h): 217 g
- APTT (9 h): 17.7 s
- Bas (9 h): 0.8%
- Eos (9 h): 0.8%
- Fbg (9 h): 241.4 mg/dL
- Hb (9 h): 13.9 g/dL
- Ht (9 h): 40.5%
- Lym (9 h): 75.2%
- MCH (9 h): 21.8 pg
- MCHC (9 h): 34.3%
- MCV (9 h): 63.4 fL
- Mono (9 h): 2.8%
- Neu (9 h): 19.4%
- PT (9 h): 12 s
- Plat (9 h): 124 x10_4/uL
- RBC (9 h): 639.4 x10_4/ul
- Ret (9 h): 6.7%
- WBC (9 h): 86.2 x10_2/uL
- KIDNEY_L (9 h): 1 g
- KIDNEY_R (9 h): 1 g
- KIDNEY_TOTAL (9 h): 1.9 g
- LIVER (9 h): 9.2 g
- A/G (9 h): 1.5
- ALP (9 h): 861.2 IU/L
- ALT (9 h): 32.4 IU/L
- AST (9 h): 67.8 IU/L
- BUN (9 h): 11.2 mg/dL
- CRE (9 h): 0.4 mg/dL
- Ca (9 h): 10.6 mg/dL
- Cl (9 h): 104 meq/L
- DBIL (9 h): 0.06 mg/dL
- GLC (9 h): 210.4 mg/dL
- IP (9 h): 9 mg/dL
- K (9 h): 3.7 meq/L
- LDH (9 h): 239.6 IU/L
- Na (9 h): 141 meq/L
- PL (9 h): 134.8 mg/dL
- RALB (9 h): 3.5 g/dL
- TBIL (9 h): 0.1 mg/dL
- TC (9 h): 73.6 mg/dL
- TG (9 h): 49.2 mg/dL
- TP (9 h): 5.7 g/dL
- gamma-GTP (9 h): 1 IU/L
- TERMINAL_BW (24 h): 237.9 g
- APTT (24 h): 20.8 s
- Bas (24 h): 0.2%
- Eos (24 h): 0.8%
- Fbg (24 h): 217.2 mg/dL
- Hb (24 h): 13.8 g/dL
- Ht (24 h): 40.1%
- Lym (24 h): 82%
- MCH (24 h): 22.5 pg
- MCHC (24 h): 34.3%
- MCV (24 h): 65.4 fL
- Mono (24 h): 3%
- Neu (24 h): 13.2%
- PT (24 h): 11.9 s
- Plat (24 h): 121.3 x10_4/uL
- RBC (24 h): 612 x10_4/ul
- Ret (24 h): 6.8%
- WBC (24 h): 101.1 x10_2/uL
- KIDNEY_L (24 h): 1.1 g
- KIDNEY_R (24 h): 1.1 g
- KIDNEY_TOTAL (24 h): 2.1 g
- LIVER (24 h): 11.4 g
- A/G (24 h): 1.7
- ALP (24 h): 1055.8 IU/L
- ALT (24 h): 40 IU/L
- AST (24 h): 69.4 IU/L
- BUN (24 h): 14.8 mg/dL
- CRE (24 h): 0.4 mg/dL
- Ca (24 h): 10.8 mg/dL
- Cl (24 h): 103.8 meq/L
- DBIL (24 h): 0.09 mg/dL
- GLC (24 h): 214.6 mg/dL
- IP (24 h): 8.3 mg/dL
- K (24 h): 3.9 meq/L
- LDH (24 h): 192.8 IU/L
- Na (24 h): 140.4 meq/L
- PL (24 h): 132.2 mg/dL
- RALB (24 h): 3.4 g/dL
- TBIL (24 h): 0.2 mg/dL
- TC (24 h): 64.2 mg/dL
- TG (24 h): 95.8 mg/dL
- TP (24 h): 5.4 g/dL
- gamma-GTP (24 h): 1.2 IU/L

From ChEMBL document CHEMBL3885861, “Open TG-GATES”
